In patent publication US8809321B2, “Diaryl ether linked pyrrolo [2,1-c][1,4] benzodiazepine hybrids and process for the preparation thereof” (Council of Scientific and Industrial Research, priority 2011, dated 2014):
Read-outs that look alike come from different tables or passages of the source.

Columns and labels:
[1] = test system: ZR-751 breast cancer cell line; assay: MTT assay, 48 h continuous drug exposure, ZR-751; assay type: cell-based, human; details: read-out: GI50 ZR-751
Procedure: (§1) For each compound, dose response curves for each cell line were measured at a minimum of five concentrations at 10 fold dilutions. A protocol of 48 h continuous drug exposure was used and a MTT assay was used to estimate cell viability or growth. The percent of cell growth (GI50) compared with the control was calculated.

[2] = test system: DWD oral cancer cell line; assay: MTT assay, 48 h continuous drug exposure, DWD; assay type: cell-based, human; details: read-out: GI50 DWD
Procedure: as §1

[3] = test system: Colo205 colon cancer cell line; assay: MTT assay, 48 h continuous drug exposure, Colo205; assay type: cell-based, human
Procedure: (§2) Some of the C8-linked diaryl ether-PBD hybrids have been tested against eleven human tumour cell lines derived from seven cancer types (lung cancer, colon cancer, cervix, ovarian cancer, oral cancer, prostate cancer and breast cancer) as per Tata protocol as shown in Table 2. For each compound, dose response curves for each cell line were measured at a minimum of five concentrations at 10 fold dilutions. A protocol of 48 h continuous drug exposure was used and a MTT assay was used to estimate cell viability or growth. The percent of cell growth (GI50) compared with the control was calculated. Some of the compounds have been evaluated for their in vitro cytotoxicity in eleven cell lines from seven human cancer types. The results are expressed as GI50 determined relative to that of untreated control cells (Table-2).

[4] = test system: duplex-form calf thymus DNA (CT-DNA); assay: Thermal denaturation studies with calf thymus DNA (DNA binding affinity); details: [PBD]:[DNA] molar ratio 1:5, CT-DNA 100 μM, ligand 20 μM, sodium phosphate buffer pH 7.00; for (ΔTm ° C.) after incubation at 37° C. for 0 h: 0 h at 37° C.; for (ΔTm ° C.) after incubation at 37° C. for 18 h: 18 h at 37° C.
Procedure: DNA Binding Affinity of Diaryl Ether Linked PBD Hybrids: Compounds have been subjected to thermal denaturation studies with duplex-form calf thymus DNA (CT-DNA) using a modification of a reported procedure (Newman, M. S. Carcinog-compr. Surv. 1976, 1, 203; ([…].; Loy, M.; Hoffman, Carcinog-compr. […] The DNA-PBD solutions have been incubated at 37° C. for 0 and 18 h prior to analysis. […] DNA helix→coil transition temperatures (Tm) have been obtained from the maxima in the d(A260)/dT derivative plots. […] The DNA binding activity for these novel C8-linked diaryl ether PBD hybrids has been examined by thermal denaturation studies using calf thymus (CT) DNA. […] The data for the compounds are included in Table 1 for comparison.

[5] = test system: SiHa Cervix cancer cell line; assay: MTT assay, 48 h continuous drug exposure, SiHa; assay type: cell-based, human; details: read-out: GI50 SiHa
Procedure: as §1

[6] = test system: MCF7 breast cancer cell line; assay: MTT assay, 48 h continuous drug exposure, MCF7; assay type: cell-based, human
Procedure: as §2

[7] = test system: A549 lung cancer cell line; assay: MTT assay, 48 h continuous drug exposure, A549; assay type: cell-based, human
Procedure: as §2

[8] = test system: Gurav oral cancer cell line; assay: MTT assay, 48 h continuous drug exposure, Gurav; assay type: cell-based, human; details: read-out: GI50 Gurav
Procedure: as §1

[9] = test system: A2780 ovarian cancer cell line; assay: MTT assay, 48 h continuous drug exposure, A2780; assay type: cell-based, human; details: read-out: GI50 A2780
Procedure: as §1

[10] = test system: PC3 prostrate cancer cell line; assay: MTT assay, 48 h continuous drug exposure, PC3; assay type: cell-based, human; details: read-out: GI50 PC3
Procedure: as §1

[11] = test system: Hop62 lung cancer cell line; assay: MTT assay, 48 h continuous drug exposure, Hop62; assay type: cell-based, human; details: read-out: GI50 Hop62
Procedure: as §1

[12] = breast cancer cell line, 48 h exposure, MTT
[13] = oral cancer cell line, 48 h exposure, MTT
[14] = Cervix cancer cell line, 48 h exposure, MTT
[15] = ovarian cancer cell line, 48 h exposure, MTT
[16] = prostrate cancer cell line, 48 h exposure, MTT
[17] = lung cancer cell line, 48 h exposure, MTT

Structure (SMILES): COc1cc2c(cc1OCCCCCOc1ccc(Oc3cc(OC)c(OC)c(OC)c3)c([N+](=O)[O-])c1)N=C[C@@H]1CCCN1C2=O [21c, 7-Methoxy-(8-3-[4-(3,4,5-timethoxyphenoxy)-3-nitrophenoxy]pentyloxy)-(11aS)-1,2,3,11a-tetrahydro-5H-pyrrolo[2,1-c][1,4]benzodiazepin-5-one]
- GI50 [1, 12]: 1600 nM
- GI50 [2, 13]: 2130 nM
- GI50 ([3]; 48 h exposure): 2510 nM
- (ΔTm ° C.) after incubation at 37° C. for 0 h [4]: 3.9 °C
- (ΔTm ° C.) after incubation at 37° C. for 18 h [4]: 5.1 °C
- GI50 [5, 14]: 1260 nM
- GI50 ([6]; 48 h exposure): 1850 nM
- GI50 ([7]; 48 h exposure): 2500 nM
- GI50 [8, 13]: 2860 nM
- GI50 [9, 15]: 1560 nM
- GI50 [10, 16]: 1580 nM
- GI50 [11, 17]: 3100 nM

Structure (SMILES): COc1cc2c(cc1OCCCCCOc1cccc(Oc3cc(OC)c(OC)c(OC)c3)c1[N+](=O)[O-])N=C[C@@H]1CCCN1C2=O [21g, 7-Methoxy-(8-3-[3-(3,4,5-trimethoxyphenoxy)-2-nitrophenoxy]pentyloxy)-(11aS)-1,2,3,11a-tetrahydro-5H-pyrrolo[2,1-c][1,4]benzodiazepin-5-one]
- GI50 [1, 12]: 180 nM
- GI50 [2, 13]: 170 nM
- GI50 ([3]; 48 h exposure): 170 nM
- (ΔTm ° C.) after incubation at 37° C. for 0 h [4]: 4.9 °C
- (ΔTm ° C.) after incubation at 37° C. for 18 h [4]: 6.2 °C
- GI50 [5, 14]: 2210 nM
- GI50 ([6]; 48 h exposure): 2300 nM
- GI50 ([7]; 48 h exposure): 2020 nM
- GI50 [8, 13]: 160 nM
- GI50 [9, 15]: 2100 nM
- GI50 [10, 16]: 190 nM
- GI50 [11, 17]: 2130 nM

Structure (SMILES): COc1ccc(Oc2ccc(C(=O)N3CCN(CCCCCOc4cc5c(cc4OC)C(=O)N4CCC[C@H]4C=N5)CC3)cc2N)cc1 [22c]
- GI50 [1, 12]: 190 nM
- GI50 [2, 13]: 180 nM
- GI50 ([3]; 48 h exposure): 170 nM
- (ΔTm ° C.) after incubation at 37° C. for 0 h [4]: 3.1 °C
- (ΔTm ° C.) after incubation at 37° C. for 18 h [4]: 4.2 °C
- GI50 [5, 14]: 3250 nM
- GI50 ([6]; 48 h exposure): 170 nM
- GI50 ([7]; 48 h exposure): 180 nM
- GI50 [8, 13]: 160 nM
- GI50 [9, 15]: 190 nM
- GI50 [10, 16]: 190 nM
- GI50 [11, 17]: 2300 nM

Structure (SMILES): COc1ccc(Oc2ccc(C(=O)N3CCN(CCCCCOc4cc5c(cc4OC)C(=O)N4CCC[C@H]4C=N5)CC3)cc2N)cc1OC [23c]
- GI50 [1, 12]: 190 nM
- GI50 [2, 13]: 150 nM
- GI50 ([3]; 48 h exposure): 160 nM
- (ΔTm ° C.) after incubation at 37° C. for 0 h [4]: 3.6 °C
- (ΔTm ° C.) after incubation at 37° C. for 18 h [4]: 4.5 °C
- GI50 [5, 14]: 2470 nM
- GI50 ([6]; 48 h exposure): 150 nM
- GI50 ([7]; 48 h exposure): 180 nM
- GI50 [8, 13]: 120 nM
- GI50 [9, 15]: 180 nM
- GI50 [10, 16]: 170 nM
- GI50 [11, 17]: 2280 nM

Structure (SMILES): COc1cc2c(cc1OCCCCCN1CCN(C(=O)c3ccc(Oc4cc(OC)c(OC)c(OC)c4)c(N)c3)CC1)N=C[C@@H]1CCCN1C2=O [24c]
- GI50 [1, 12]: 180 nM
- GI50 [2, 13]: 160 nM
- GI50 ([3]; 48 h exposure): 540 nM
- (ΔTm ° C.) after incubation at 37° C. for 0 h [4]: 4.5 °C
- (ΔTm ° C.) after incubation at 37° C. for 18 h [4]: 6.0 °C
- GI50 [5, 14]: 2500 nM
- GI50 ([6]; 48 h exposure): 170 nM
- GI50 ([7]; 48 h exposure): 170 nM
- GI50 [8, 13]: 150 nM
- GI50 [9, 15]: 2000 nM
- GI50 [10, 16]: 170 nM
- GI50 [11, 17]: 2260 nM

Structure (SMILES): COc1ccc(Oc2ccc(C(=O)N3CCN(CCCCCOc4cc5c(cc4OC)C(=O)N4CCC[C@H]4C=N5)CC3)cc2[N+](=O)[O-])cc1 [31c]
- GI50 [1, 12]: 180 nM
- GI50 [2, 13]: 180 nM
- GI50 ([3]; 48 h exposure): 170 nM
- (ΔTm ° C.) after incubation at 37° C. for 0 h [4]: 3.9 °C
- (ΔTm ° C.) after incubation at 37° C. for 18 h [4]: 5.6 °C
- GI50 [5, 14]: 3880 nM
- GI50 ([6]; 48 h exposure): 180 nM
- GI50 ([7]; 48 h exposure): 170 nM
- GI50 [8, 13]: 160 nM
- GI50 [9, 15]: 190 nM
- GI50 [10, 16]: 170 nM
- GI50 [11, 17]: 190 nM

Structure (SMILES): COc1ccc(Oc2ccc(C(=O)N3CCN(CCCCCOc4cc5c(cc4OC)C(=O)N4CCC[C@H]4C=N5)CC3)cc2[N+](=O)[O-])cc1OC [32c]
- GI50 [1, 12]: 150 nM
- GI50 [2, 13]: 140 nM
- GI50 ([3]; 48 h exposure): 160 nM
- (ΔTm ° C.) after incubation at 37° C. for 0 h [4]: 4.8 °C
- (ΔTm ° C.) after incubation at 37° C. for 18 h [4]: 7.3 °C
- GI50 [5, 14]: 1850 nM
- GI50 ([6]; 48 h exposure): 170 nM
- GI50 ([7]; 48 h exposure): 140 nM
- GI50 [8, 13]: 120 nM
- GI50 [9, 15]: 150 nM
- GI50 [10, 16]: 190 nM
- GI50 [11, 17]: 180 nM

Structure (SMILES): COc1cc2c(cc1OCCCCCN1CCN(C(=O)c3ccc(Oc4cc(OC)c(OC)c(OC)c4)c([N+](=O)[O-])c3)CC1)N=C[C@@H]1CCCN1C2=O [33c]
- GI50 [1, 12]: 2200 nM
- GI50 [2, 13]: 2100 nM
- GI50 ([3]; 48 h exposure): 150 nM
- (ΔTm ° C.) after incubation at 37° C. for 0 h [4]: 4.2 °C
- (ΔTm ° C.) after incubation at 37° C. for 18 h [4]: 6.1 °C
- GI50 [5, 14]: 2250 nM
- GI50 ([6]; 48 h exposure): 180 nM
- GI50 ([7]; 48 h exposure): 2240 nM
- GI50 [8, 13]: 170 nM
- GI50 [9, 15]: 2300 nM
- GI50 [10, 16]: 2150 nM
- GI50 [11, 17]: 2670 nM

Structure (SMILES): C1=CC2=CN=c3ccccc3=CN2C1 [DC-81, pyrrolo[2,1-c][1,4]benzodiazepine, reference compound]
- GI50 ([1]; Homo sapiens, ZR-75-1, 48 h): 160 nM
- GI50 ([2]; Homo sapiens, 48 h): 200 nM
- GI50 ([3]; Homo sapiens, COLO 205, 48 h exposure): 110 nM
- (ΔTm ° C.) after incubation at 37° C. for 0 h [4]: 0.3 °C
- (ΔTm ° C.) after incubation at 37° C. for 18 h [4]: 0.7 °C
- GI50 ([5]; Homo sapiens, SiHa, 48 h): 140 nM
- GI50 ([6]; Homo sapiens, MCF7, 48 h exposure): 170 nM
- GI50 ([7]; Homo sapiens, A549, 48 h exposure): 160 nM
- GI50 ([8]; Homo sapiens, Gurav, 48 h): 1490 nM
- GI50 ([9]; Homo sapiens, A2780, 48 h): 150 nM
- GI50 ([10]; Homo sapiens, 48 h): 170 nM
- GI50 ([11]; Homo sapiens, HOP-62, 48 h): 170 nM
